Values of other authors in patent US20160000720A1, “Pharmaceutical compositions comprising Tadalafil” (AUROBINDO PHARMA LIMITED, priority 2013, published 2016).

solubility in water (in words): practically insoluble in water
soluble in water in a concentration up to (according to WO 01/08687): up to 2 μg/ml
SMILES: CN1CC(=O)N2[C@H](c3ccc4c(c3)OCO4)c3[nH]c4ccccc4c3C[C@@H]2C1=O [Tadalafil, (6R,12aR)-6-(1,3-benzodioxol-5-yl)-2,3,6,7,12,12a hexa hydro-2-methylpyrazino[1′,2′:1,6]pyrido[3,4-b]indole-1,4-dione]
